{"source": "PubChem BioAssay AID1259407", "about": "(Chemical Carcinogenesis Research Information System (CCRIS), 2018)", "system": "CCRIS mutagenicity, Ames/micronucleus/aberration tests", "experiment": "CCRIS mutagenicity studies", "key": {"[1]": {"settings": "Test System: AMES SALMONELLA TYPHIMURIUM, Strain/Indicator: TA98, Metabolic Activation: NONE, Method: STANDARD PLATE"}, "[2]": {"settings": "Test System: AMES SALMONELLA TYPHIMURIUM, Strain/Indicator: TA100, Metabolic Activation: NONE, Method: STANDARD PLATE"}, "[3]": {"settings": "Test System: AMES SALMONELLA TYPHIMURIUM, Strain/Indicator: TA1535, Metabolic Activation: NONE, Method: STANDARD PLATE"}, "[4]": {"settings": "Test System: AMES SALMONELLA TYPHIMURIUM, Strain/Indicator: TA1537, Metabolic Activation: NONE, Method: STANDARD PLATE"}, "[5]": {"settings": "Test System: AMES SALMONELLA TYPHIMURIUM, Strain/Indicator: TA1538, Metabolic Activation: NONE, Method: STANDARD PLATE"}}, "note": "The source made the active and inactive calls. No rule for the calls is given here."}
{"smiles": "C[C@@H]1CC[C@@]2(OC1)O[C@H]1C[C@H]3[C@@H]4CC=C5C[C@@H](O)CC[C@]5(C)[C@H]4CC[C@]3(C)[C@H]1[C@@H]2C", "values": [{"measurement": "mutagenic call", "setting": "Test System: AMES SALMONELLA TYPHIMURIUM, Strain/Indicator: TA98, Metabolic Activation: HAMSTER, LIVER, S-9, AROCLOR 1254, Method: STANDARD PLATE", "result": "inactive; negative"}, {"measurement": "mutagenic call", "setting": "[1]", "result": "inactive; negative"}, {"measurement": "mutagenic call", "setting": "Test System: AMES SALMONELLA TYPHIMURIUM, Strain/Indicator: TA98, Metabolic Activation: RAT, LIVER, S-9, AROCLOR 1254, Method: STANDARD PLATE", "result": "inactive; negative"}, {"measurement": "mutagenic call", "setting": "Test System: AMES SALMONELLA TYPHIMURIUM, Strain/Indicator: TA100, Metabolic Activation: HAMSTER, LIVER, S-9, AROCLOR 1254, Method: STANDARD PLATE", "result": "inactive; negative"}, {"measurement": "mutagenic call", "setting": "[2]", "result": "inactive; negative"}, {"measurement": "mutagenic call", "setting": "Test System: AMES SALMONELLA TYPHIMURIUM, Strain/Indicator: TA100, Metabolic Activation: RAT, LIVER, S-9, AROCLOR 1254, Method: STANDARD PLATE", "result": "inactive; negative"}, {"measurement": "mutagenic call", "setting": "Test System: AMES SALMONELLA TYPHIMURIUM, Strain/Indicator: TA1535, Metabolic Activation: HAMSTER, LIVER, S-9, AROCLOR 1254, Method: STANDARD PLATE", "result": "inactive; negative"}, {"measurement": "mutagenic call", "setting": "[3]", "result": "inactive; negative"}, {"measurement": "mutagenic call", "setting": "Test System: AMES SALMONELLA TYPHIMURIUM, Strain/Indicator: TA1535, Metabolic Activation: RAT, LIVER, S-9, AROCLOR 1254, Method: STANDARD PLATE", "result": "inactive; negative"}, {"measurement": "mutagenic call", "setting": "Test System: AMES SALMONELLA TYPHIMURIUM, Strain/Indicator: TA1537, Metabolic Activation: HAMSTER, LIVER, S-9, AROCLOR 1254, Method: STANDARD PLATE", "result": "inactive; negative"}, {"measurement": "mutagenic call", "setting": "[4]", "result": "inactive; negative"}, {"measurement": "mutagenic call", "setting": "Test System: AMES SALMONELLA TYPHIMURIUM, Strain/Indicator: TA1537, Metabolic Activation: RAT, LIVER, S-9, AROCLOR 1254, Method: STANDARD PLATE", "result": "inactive; negative"}, {"measurement": "mutagenic call", "setting": "Test System: AMES SALMONELLA TYPHIMURIUM, Strain/Indicator: TA1538, Metabolic Activation: HAMSTER, LIVER, S-9, AROCLOR 1254, Method: STANDARD PLATE", "result": "inactive; negative"}, {"measurement": "mutagenic call", "setting": "[5]", "result": "inactive; negative"}, {"measurement": "mutagenic call", "setting": "Test System: AMES SALMONELLA TYPHIMURIUM, Strain/Indicator: TA1538, Metabolic Activation: RAT, LIVER, S-9, AROCLOR 1254, Method: STANDARD PLATE", "result": "inactive; negative"}]}
{"smiles": "Cc1ccc(O)c(N)c1", "values": [{"measurement": "mutagenic call", "setting": "Test System: AMES SALMONELLA TYPHIMURIUM, Strain/Indicator: TA97, Metabolic Activation: HAMSTER, LIVER, S-9, AROCLOR 1254 (10%), Method: PREINCUBATION", "result": "inactive; negative"}, {"measurement": "mutagenic call", "setting": "Test System: AMES SALMONELLA TYPHIMURIUM, Strain/Indicator: TA97, Metabolic Activation: NONE, Method: PREINCUBATION", "result": "active; positive"}, {"measurement": "mutagenic call", "setting": "Test System: AMES SALMONELLA TYPHIMURIUM, Strain/Indicator: TA97, Metabolic Activation: RAT, LIVER, S-9, AROCLOR 1254 (10%), Method: PREINCUBATION", "result": "inactive; negative"}, {"measurement": "mutagenic call", "setting": "Test System: AMES SALMONELLA TYPHIMURIUM, Strain/Indicator: TA98, Metabolic Activation: HAMSTER LIVER S-9, AROCLOR 1254, Method: STANDARD PLATE", "result": "inactive; negative"}, {"measurement": "mutagenic call", "setting": "Test System: AMES SALMONELLA TYPHIMURIUM, Strain/Indicator: TA98, Metabolic Activation: HAMSTER, LIVER, S-9, AROCLOR 1254 (10%), Method: PREINCUBATION", "result": "inactive; negative"}, {"measurement": "mutagenic call", "setting": "Test System: AMES SALMONELLA TYPHIMURIUM, Strain/Indicator: TA98, Metabolic Activation: NONE, Method: PREINCUBATION", "result": "inactive; negative"}, {"measurement": "mutagenic call", "setting": "[1]", "result": "inactive; negative"}, {"measurement": "mutagenic call", "setting": "Test System: AMES SALMONELLA TYPHIMURIUM, Strain/Indicator: TA98, Metabolic Activation: RAT LIVER S-9, AROCLOR 1254, Method: STANDARD PLATE", "result": "inactive; negative"}, {"measurement": "mutagenic call", "setting": "Test System: AMES SALMONELLA TYPHIMURIUM, Strain/Indicator: TA98, Metabolic Activation: RAT, LIVER, S-9, AROCLOR 1254 (10%), Method: PREINCUBATION", "result": "inactive; negative"}, {"measurement": "mutagenic call", "setting": "Test System: AMES SALMONELLA TYPHIMURIUM, Strain/Indicator: TA100, Metabolic Activation: HAMSTER LIVER S-9, AROCLOR 1254, Method: STANDARD PLATE", "result": "inactive; negative"}, {"measurement": "mutagenic call", "setting": "Test System: AMES SALMONELLA TYPHIMURIUM, Strain/Indicator: TA100, Metabolic Activation: HAMSTER, LIVER, S-9, AROCLOR 1254 (10%), Method: PREINCUBATION", "result": "active; positive"}, {"measurement": "mutagenic call", "setting": "Test System: AMES SALMONELLA TYPHIMURIUM, Strain/Indicator: TA100, Metabolic Activation: NONE, Method: PREINCUBATION", "result": "active; positive"}, {"measurement": "mutagenic call", "setting": "[2]", "result": "inactive; negative"}, {"measurement": "mutagenic call", "setting": "Test System: AMES SALMONELLA TYPHIMURIUM, Strain/Indicator: TA100, Metabolic Activation: RAT LIVER S-9, AROCLOR 1254, Method: STANDARD PLATE", "result": "inactive; negative"}, {"measurement": "mutagenic call", "setting": "Test System: AMES SALMONELLA TYPHIMURIUM, Strain/Indicator: TA100, Metabolic Activation: RAT, LIVER, S-9, AROCLOR 1254 (10%), Method: PREINCUBATION", "result": "active; positive"}, {"measurement": "mutagenic call", "setting": "Test System: AMES SALMONELLA TYPHIMURIUM, Strain/Indicator: TA1535, Metabolic Activation: HAMSTER LIVER S-9, AROCLOR 1254, Method: STANDARD PLATE", "result": "inactive; negative"}, {"measurement": "mutagenic call", "setting": "Test System: AMES SALMONELLA TYPHIMURIUM, Strain/Indicator: TA1535, Metabolic Activation: HAMSTER, LIVER, S-9, AROCLOR 1254 (10%), Method: PREINCUBATION", "result": "inactive; negative"}, {"measurement": "mutagenic call", "setting": "Test System: AMES SALMONELLA TYPHIMURIUM, Strain/Indicator: TA1535, Metabolic Activation: NONE, Method: PREINCUBATION", "result": "inactive; negative"}, {"measurement": "mutagenic call", "setting": "[3]", "result": "inactive; negative"}, {"measurement": "mutagenic call", "setting": "Test System: AMES SALMONELLA TYPHIMURIUM, Strain/Indicator: TA1535, Metabolic Activation: RAT LIVER S-9, AROCLOR 1254, Method: STANDARD PLATE", "result": "inactive; negative"}, {"measurement": "mutagenic call", "setting": "Test System: AMES SALMONELLA TYPHIMURIUM, Strain/Indicator: TA1535, Metabolic Activation: RAT, LIVER, S-9, AROCLOR 1254 (10%), Method: PREINCUBATION", "result": "inactive; negative"}, {"measurement": "mutagenic call", "setting": "Test System: AMES SALMONELLA TYPHIMURIUM, Strain/Indicator: TA1537, Metabolic Activation: HAMSTER LIVER S-9, AROCLOR 1254, Method: STANDARD PLATE", "result": "inactive; negative"}, {"measurement": "mutagenic call", "setting": "[4]", "result": "inactive; negative"}, {"measurement": "mutagenic call", "setting": "Test System: AMES SALMONELLA TYPHIMURIUM, Strain/Indicator: TA1537, Metabolic Activation: RAT LIVER S-9, AROCLOR 1254, Method: STANDARD PLATE", "result": "inactive; negative"}, {"measurement": "mutagenic call", "setting": "Test System: AMES SALMONELLA TYPHIMURIUM, Strain/Indicator: TA1538, Metabolic Activation: HAMSTER LIVER S-9, AROCLOR 1254, Method: STANDARD PLATE", "result": "inactive; negative"}, {"measurement": "mutagenic call", "setting": "[5]", "result": "inactive; negative"}, {"measurement": "mutagenic call", "setting": "Test System: AMES SALMONELLA TYPHIMURIUM, Strain/Indicator: TA1538, Metabolic Activation: RAT LIVER S-9, AROCLOR 1254, Method: STANDARD PLATE", "result": "inactive; negative"}, {"measurement": "mutagenic call", "setting": "Test System: MOUSE LYMPHOMA, Strain/Indicator: L5178Y (TK+/TK-), Metabolic Activation: NONE, Method: SUSPENSION/PLATE", "result": "active; positive. reevaluation of results: positive"}, {"measurement": "mutagenic call", "setting": "Test System: MOUSE LYMPHOMA, Strain/Indicator: L5178Y (TK+/TK-), Metabolic Activation: RAT, LIVER, S-9, AROCLOR 1254, Method: SUSPENSION/PLATE", "result": "active; positive. reevaluation of results: positive"}]}
